The source of these data is patent US12319655B2, “RAF kinase inhibitors and methods of use thereof” (Deciphera Pharmaceuticals, LLC, priority 2021, dated 2025).

Where only a bound is given, the exact number is not on record here.

Assay [1] concerns Miapaca-2 cells. Put plainly: MiaPaca-2 Cell Proliferation Assay (1). Format: cell-based. The following applies: Homo sapiens, MIA PaCa-2, single agent, read-out: MiaPaca2 (1) IC50. A digest of the protocol: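 Resazurin was added after compound exposure and incubated 5-6 h, then fluorescence read at 540 nm excitation and 600 nm emission to give IC50.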
Assay [2] deals with A-Raf kinase (SEQ. ID No: 1) (Homo sapiens (Human), UniProt P10398, Y301D/Y302D). Put plainly: Biochemical Assay for A-Raf (1). The following applies: Table J, assay version (1); read-out: ARAF (1) IC50. A digest of the protocol: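 A-Raf Y301D/Y302D at 5.55 nM phosphorylates 30.1 nM MEK with 1 mM ATP in pH 7.5 Tris buffer, 1% DMSO. Activity was read continuously as NADH oxidation at 340 nm in a pyruvate kinase/lactate dehydrogenase coupled system for 6 h at 30 °C. Rates from 4–5 h were converted to percent inhibition, and IC50 came from a four-parameter fit.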
A-Raf kinase (SEQ. ID No: 1), sequence (P10398 other isoform, or with tags, fused parts or gaps Y301D (already in the parent)/Y302D (already in the parent)): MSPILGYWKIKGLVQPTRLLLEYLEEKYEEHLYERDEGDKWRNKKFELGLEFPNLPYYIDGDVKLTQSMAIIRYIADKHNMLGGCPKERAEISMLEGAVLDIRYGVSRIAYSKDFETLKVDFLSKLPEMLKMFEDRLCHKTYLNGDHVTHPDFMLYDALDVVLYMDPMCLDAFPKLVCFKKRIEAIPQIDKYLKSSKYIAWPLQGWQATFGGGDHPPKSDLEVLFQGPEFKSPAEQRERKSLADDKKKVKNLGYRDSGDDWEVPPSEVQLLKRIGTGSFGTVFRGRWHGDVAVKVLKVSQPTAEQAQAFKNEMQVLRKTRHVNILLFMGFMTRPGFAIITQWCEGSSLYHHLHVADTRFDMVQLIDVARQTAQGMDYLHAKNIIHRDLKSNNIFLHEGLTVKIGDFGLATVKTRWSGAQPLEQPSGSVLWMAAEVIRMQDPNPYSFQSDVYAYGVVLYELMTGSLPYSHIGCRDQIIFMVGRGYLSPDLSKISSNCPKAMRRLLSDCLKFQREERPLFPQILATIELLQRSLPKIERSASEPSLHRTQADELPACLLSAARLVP

Assay [3] concerns the target B-Raf (V600E) (SEQ. ID NO: 4) kinase (Homo sapiens (Human), UniProt P15056, V600E). The assay is described as follows: Biochemical Assay for B-Raf (V600E) (1). The conditions noted are these: Table J, BRAF V600E, assay version (1); read-out: BRAF VE (1) IC50. A digest of the protocol:
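Coupled pyruvate kinase/lactate dehydrogenase assay: 0.03 nM B-Raf V600E, 30.1 nM MEK, 1 mM ATP, pH 7.5 Tris/MgCl2 buffer, 1% DMSO. NADH oxidation followed at 340 nm for 6 h at 30 °C; rate from 3–4 h converted to percent inhibition, IC50 by four-parameter fit.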

Assay [4] has as its target C-Raf kinase (SEQ. ID NO: 3) (Homo sapiens (Human), UniProt P04049, Y340D/Y341D). Put plainly: Biochemical Assay for C-Raf (1). The following applies: Table J, assay version (1); read-out: CRAF (1) IC50. A digest of the protocol:
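Coupled pyruvate kinase/LDH assay tracking NADH oxidation at 340 nm, with 0.43 nM C-Raf, 30.1 nM MEK and 1 mM ATP in pH 7.5 Tris buffer (15 mM MgCl2, 1% DMSO final). Read continuously for 6 h at 30 °C, rate taken from the 4–5 h window. IC50 from four-parameter fit of percent inhibition.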

C-Raf kinase (SEQ. ID NO: 3), sequence (P04049 307-648 Y340D/Y341D): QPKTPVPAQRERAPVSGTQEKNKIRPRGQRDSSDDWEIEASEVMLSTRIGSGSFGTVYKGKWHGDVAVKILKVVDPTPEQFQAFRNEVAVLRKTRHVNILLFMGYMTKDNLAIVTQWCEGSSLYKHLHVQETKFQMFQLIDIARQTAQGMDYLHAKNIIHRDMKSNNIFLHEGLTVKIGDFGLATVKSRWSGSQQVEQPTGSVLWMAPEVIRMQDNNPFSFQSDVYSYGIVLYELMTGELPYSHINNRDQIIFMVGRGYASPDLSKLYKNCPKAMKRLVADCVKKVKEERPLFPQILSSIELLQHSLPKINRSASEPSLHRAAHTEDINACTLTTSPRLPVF
B-Raf (V600E) (SEQ. ID NO: 4) kinase, sequence (P15056 416-766 V600E): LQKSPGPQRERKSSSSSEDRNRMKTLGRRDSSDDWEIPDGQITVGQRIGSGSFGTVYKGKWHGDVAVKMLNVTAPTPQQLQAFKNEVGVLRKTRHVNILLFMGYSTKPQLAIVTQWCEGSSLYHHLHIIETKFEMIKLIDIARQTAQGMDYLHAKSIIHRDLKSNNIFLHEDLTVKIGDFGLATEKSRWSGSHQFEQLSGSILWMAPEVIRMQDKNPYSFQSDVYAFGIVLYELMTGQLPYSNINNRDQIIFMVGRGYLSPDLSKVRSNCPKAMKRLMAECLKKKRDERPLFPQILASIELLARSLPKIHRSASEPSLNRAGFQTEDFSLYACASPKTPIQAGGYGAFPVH

As usually defined, the IC50 is the midpoint of a concentration-inhibition curve. For the compound `CNC(=O)c1cc(-c2cccc(-c3cc(NC(=O)c4ccnc(C(C)(C)C#N)c4)ccc3C)c2)ncn1` [Example 171], the IC50 in assay [1] was 1000 to 10000 nM; in assay [2], 1000 to 10000 nM; in assay [3] it was no more than 100 nM; in assay [4], no more than 100 nM.

For `CC(=O)Nc1cc(-c2cc(-c3cc(NC(=O)c4ccnc(C(C)(C)C#N)c4)ccc3C)cn(C)c2=O)ccn1` [Example 113], the IC50 was 1000 to 10000 nM in assay [1], 1000 to 10000 nM in assay [2], no more than 100 nM in assay [3] and no more than 100 nM in assay [4].

As to `CNC(=O)c1cc(-c2nccc(-c3cc(NC(=O)c4ccnc(C(C)(C)C#N)c4)c(F)cc3C)n2)ccn1` [Example 166], the IC50 in assay [1] was 1000 to 10000 nM; in assay [2] it was 1000 to 10000 nM; in assay [3], no more than 100 nM; in assay [4], 100 to 500 nM.

Regarding `Cc1ccc(NC(=O)c2ccnc(C(C)(C)C#N)c2)cc1-c1cncc(-c2ccnc(NC=O)c2)n1` [Example 161], the IC50 in assay [1] was 1000 to 10000 nM; in assay [2], 500 to 1000 nM; in assay [3], no more than 100 nM; in assay [4] it was no more than 100 nM.

As for `COCCNc1cc(-c2cncc(-c3cc(NC(=O)c4ccnc(C(C)(C)C#N)c4)ccc3C)n2)ccn1` [Example 143], the IC50 in assay [1] is 1000 to 10000 nM; in assay [2], 1000 to 10000 nM; in assay [3], no more than 100 nM; in assay [4], no more than 100 nM.

With `Cc1ccc(NC(=O)c2ccnc(C(C)(C)C#N)c2)cc1-c1cncc(-c2ccnc(NC(=O)C3CC3)c2)n1` [Example 112], the IC50 in assay [1] was 1000 to 10000 nM; in assay [2] it was 500 to 1000 nM; in assay [3], no more than 100 nM; in assay [4], no more than 100 nM.

For `CCC(=O)Nc1cc(-c2cccc(-c3cc(NC(=O)c4ccnc(C(C)(C)C#N)c4)cnc3C)n2)ccn1` [Example 182], the IC50 in assay [1] is 1000 to 10000 nM; in assay [2], 1000 to 10000 nM; in assay [3], no more than 100 nM; in assay [4] it was no more than 100 nM.

Take `CNC(=O)c1cc(-c2cncc(-c3cc(NC(=O)c4cc(C(F)(F)F)ccn4)ccc3C)n2)ccn1` [Example 135]: the IC50 in assay [1] was 1000 to 10000 nM; in assay [2], 1000 to 10000 nM; in assay [3], no more than 100 nM; in assay [4], no more than 100 nM.

In the case of `Cc1ncc(NC(=O)c2cccc(C(F)(F)F)c2)cc1-c1cccc(-c2ccnc(NC(=O)CC#N)c2)c1` [Example 97], the IC50 in assay [1] was 1000 to 10000 nM; in assay [2], 500 to 1000 nM; in assay [3], no more than 100 nM; in assay [4] it was no more than 100 nM.

Take `Cc1cc(F)c(NC(=O)c2ccnc(C(F)(F)F)c2)cc1-c1ccnc(-c2ccnc(NC(=O)CN(C)C)c2)c1` [Example 7]: the IC50 is 1000 to 10000 nM in assay [1], 1000 to 10000 nM in assay [2], no more than 100 nM in assay [3] and no more than 100 nM in assay [4].

As for `CC(=O)Nc1cc(-c2nccc(-c3cc(NC(=O)c4cnnc(C5CC5)c4)ccc3C)n2)ccn1` [Example 168], the IC50 in assay [1] is 1000 to 10000 nM; in assay [2] it was 1000 to 10000 nM; in assay [3] it was no more than 100 nM; in assay [4], no more than 100 nM.

With `Cc1ccc(NC(=O)c2ccnc(C3CC3)c2)cc1-c1cncc(-c2ccnc(NC(=O)C3CC3)c2)n1` [Example 184], the IC50 in assay [1] is 1000 to 10000 nM; in assay [2], 100 to 500 nM; in assay [3], no more than 100 nM; in assay [4] it was no more than 100 nM.

`CC(=O)Nc1cc(-c2nccc(-c3cc(NC(=O)c4ccnc(C(F)(F)F)c4)c(F)cc3C)n2)ccn1` [Example 107]: the IC50 in assay [1] is 1000 to 10000 nM; in assay [2], 500 to 1000 nM; in assay [3], no more than 100 nM; in assay [4], no more than 100 nM.

On to `Cc1ncc(NC(=O)c2ccnc(C(C)(C)C#N)c2)cc1-c1cccc(-c2ncnc3c2CC(=O)N3)c1` [Example 110], for which the IC50 in assay [1] is 1000 to 10000 nM; in assay [2] it was 1000 to 10000 nM; in assay [3], no more than 100 nM; in assay [4], 100 to 500 nM.

As for `CNc1cc(-c2cncc(-c3cc(NC(=O)c4ccnc(C(C)(C)C#N)c4)ccc3C)n2)ccn1` [Example 173], the IC50 was 1000 to 10000 nM in assay [1], 1000 to 10000 nM in assay [2], no more than 100 nM in assay [3] and no more than 100 nM in assay [4].

For `CNC(=O)c1cc(-c2cc(-c3cc(NC(=O)c4ccnc(C5(C#N)CC5)c4)ccc3C)ncn2)ccn1` [Example 178], the IC50 in assay [1] was 1000 to 10000 nM; in assay [2] it was 1000 to 10000 nM; in assay [3], no more than 100 nM; in assay [4], no more than 100 nM.

With `CC(=O)Nc1cc(-c2cncc(-c3cc(NC(=O)c4cccc(C(C)(C)C#N)c4)ccc3C)n2)ccn1` [Example 125], the 50% inhibitory concentration (IC50) in assay [1] was 500 to 1000 nM; in assay [2], 1000 to 10000 nM; in assay [3] it was no more than 100 nM; in assay [4], no more than 100 nM.

On to `Cc1ccc(NC(=O)c2ccnc(C(C)(C)C#N)c2)cc1-c1ccnc(-c2ccnc3c2CC(=O)N3)n1` [Example 101], for which the IC50 in assay [1] is 1000 to 10000 nM; in assay [2], 1000 to 10000 nM; in assay [3], no more than 100 nM; in assay [4], no more than 100 nM.

Regarding `Cc1ncc(NC(=O)c2ccnc(C(C)(C)C#N)c2)cc1-c1cccc(-c2ccnc3c2CC(=O)N3)c1` [Example 105], the IC50 in assay [1] is 1000 to 10000 nM; in assay [2], 1000 to 10000 nM; in assay [3], no more than 100 nM; in assay [4] it was no more than 100 nM.

As for `CC(=O)Nc1cc(-c2nccc(-c3cc(NC(=O)c4ccnc(C5(C#N)CC5)c4)ccc3C)n2)ccn1` [Example 151], the IC50 in assay [1] was 1000 to 10000 nM; in assay [2], 100 to 500 nM; in assay [3], no more than 100 nM; in assay [4] it was no more than 100 nM.

Turning to `Cc1ccc(NC(=O)c2cccc(C(C)(C)C#N)c2)cc1-c1cccc(-c2cc(NC(=O)C3CC3)ncn2)c1` [Example 174], the IC50 in assay [1] was 1000 to 10000 nM; in assay [2], 1000 to 10000 nM; in assay [3], no more than 100 nM; in assay [4], no more than 100 nM.

With `Cc1ccc(NC(=O)c2ccnc(C(C)(C)C#N)c2)cc1-c1cccc(-c2ccnc3[nH]ncc23)c1` [Example 134], the IC50 is 1000 to 10000 nM in assay [1], 1000 to 10000 nM in assay [2], no more than 100 nM in assay [3] and no more than 100 nM in assay [4].

On to `CC(=O)Nc1cc(-c2nccc(-c3cc(NC(=O)c4cccc(C(C)(C)C#N)c4)ccc3C)n2)ccn1` [Example 150], for which the IC50 in assay [1] is 1000 to 10000 nM; in assay [2], 100 to 500 nM; in assay [3], no more than 100 nM; in assay [4], no more than 100 nM.

As for `CC(=O)Nc1cc(-c2cncc(-c3cc(NC(=O)c4cc(C(F)(F)F)ccn4)ccc3C)n2)ccn1` [Example 124], the IC50 in assay [1] is 1000 to 10000 nM; in assay [2] it was 1000 to 10000 nM; in assay [3] it was no more than 100 nM; in assay [4], no more than 100 nM.

Take `Cc1ccc(NC(=O)c2ccnc(C(C)(C)C#N)c2)cc1-c1cncc(-c2ccnc(NC(=O)CC#N)c2)n1` [Example 154]: the IC50 is 1000 to 10000 nM in assay [1], 100 to 500 nM in assay [2], no more than 100 nM in assay [3] and no more than 100 nM in assay [4].

Take `Cc1ccc(NC(=O)c2ccnc(C(C)(C)C#N)c2)cc1-c1nccc(-c2ccnc(NC(=O)C3CC3)c2)n1` [Example 169]: the IC50 in assay [1] was 1000 to 10000 nM; in assay [2], 100 to 500 nM; in assay [3] it was no more than 100 nM; in assay [4], no more than 100 nM.

Turning to `CNC(=O)c1cc(-c2cc(-c3cc(NC(=O)c4ccnc(C(C)(C)C#N)c4)c(F)cc3C)ccn2)ccn1` [Example 176], the IC50 in assay [1] was 1000 to 10000 nM; in assay [2] it was 1000 to 10000 nM; in assay [3] it was no more than 100 nM; in assay [4], no more than 100 nM.
